Assay results: US20240166630A1, “INDOLE DERIVATIVES AS SEROTONERGIC AGENTS USEFUL FOR THE TREATMENT OF DISORDERS RELATED THERETO” (Mindset Pharma Inc., priority 2021, published 2024)

Tested on: male C57BL6 mice
Test: Mouse head-twitch response (HTR)
Type: in vivo
Settings: mice pretreated with M100907 prior to compound
Description: Male, C57BL/6J mice (body weight range 20-30 g) were dosed with the appropriate dose of test article, and following a 1-minute pre-treatment time, placed in individual observation chambers. Animals were visually assessed for the incidence head twitches continuously over a 1 hr period. Head twitches were defined as a rapid jerk of the head which was not elicited by an external tactile stimulus (Come and Pickering, Psychopharmacologia, 1967, 11(1): 65-78). Each head twitch was individually counted by a trained observer, and the data expressed as the mean±SEM of 6-10 mice per group. Mice were used in a single experiment only.
Dose response (0.3-3 mg/kg SC) 5-HT2A signs of WDS/BMC measured over 1h. Also locomotor activity and other 5-HT receptor signs measured. For example, the effect on various doses of exemplary compound of Formula I-B, I-B-1, on head-twitch response (HTR) in male C57BL6 mice was studied. The mice were treated with exemplary compound I-B-1 (0.03-10 mg/kg) by SC route in a vehicle of 10% DMSO in Saline (2 drops HCl (0.1M)+1 drop Tween 80 were added), and the total number of head twitches were recorded over a one hour period. Data is expressed as mean±SEM (see, FIG. 1).

With COc1cccc([C@H](O)C2CCN(CCc3ccc(F)cc3)CC2)c1OC [Compound M100907] the “effect of pretreatment with 5-HT2AR antagonist on HTR induced by compounds of Formula I-B” value was “completely blocked”.
